# Like-named read-outs stand apart in the source and are kept apart here.
# Legend:
# [1] = Solubility in 0.1 M phosphate buffer at pH 7; assay type: physicochemical; details: 0.1 M phosphate buffer at pH 7, 10 mg/mL final peptide concentration, shaking 2 hours at room temperature, peptides as TFA-salts, measured sample pH 6.5-7.0
# hGIPR = molecular target: T1, hGIPR (Homo sapiens, UniProt P48546); test: hGIPR CreLuc assay in 0.5% and 100% plasma (CHO CRE-luciferase reporter cells); assay type: cell-based
# T1 construct: expressed in transfected cells; host or cells: CHO CRE-luciferase reporter cells
# T1 sequence (P48546 22-466): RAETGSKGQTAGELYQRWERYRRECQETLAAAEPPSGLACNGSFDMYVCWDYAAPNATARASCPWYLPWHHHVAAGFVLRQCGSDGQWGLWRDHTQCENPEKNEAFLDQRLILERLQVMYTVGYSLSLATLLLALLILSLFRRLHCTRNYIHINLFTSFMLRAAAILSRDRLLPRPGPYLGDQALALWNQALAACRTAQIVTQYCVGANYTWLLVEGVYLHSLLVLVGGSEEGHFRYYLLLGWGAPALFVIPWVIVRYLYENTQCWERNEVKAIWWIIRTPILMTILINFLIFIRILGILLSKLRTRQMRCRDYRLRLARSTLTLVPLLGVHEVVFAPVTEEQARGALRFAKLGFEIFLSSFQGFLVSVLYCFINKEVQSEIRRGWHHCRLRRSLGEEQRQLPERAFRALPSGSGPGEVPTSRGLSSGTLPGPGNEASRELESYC
# [2] = 0.5% human plasma, read-out: hGIPR 0.5% hP
# [3] = 100% human plasma, read-out: hGIPR 100% hP
SMILES,solubility at 2 h [1],EC50 (hGIPR; [2]),solubility ([1]; read-out: Solubility),EC50 (hGIPR; [3])
"CC[C@H](C)[C@H](NC(=O)[C@H](CC(C)C)NC(=O)[C@H](Cc1c[nH]cn1)NC(=O)[C@H](CCCNC(=N)N)NC(=O)[C@@H](NC(=O)[C@H](Cc1ccccc1)NC(=O)[C@H](C)NC(=O)C(C)(C)NC(=O)[C@H](Cc1ccc(O)cc1)NC(=O)[C@H](C)NC(=O)[C@H](CCC(N)=O)NC(=O)[C@H](CCCCN)NC(=O)[C@H](CCC(=O)O)NC(=O)[C@H](CC(C)C)NC(=O)C(C)(C)NC(=O)[C@@H](NC(=O)[C@H](CO)NC(=O)[C@H](Cc1ccc(O)cc1)NC(=O)[C@H](CC(=O)O)NC(=O)[C@H](CO)NC(=O)[C@@H](NC(=O)[C@H](Cc1ccccc1)NC(=O)[C@@H](NC(=O)CNC(=O)[C@H](CCC(=O)O)NC(=O)C(C)(C)NC(=O)[C@@H](N)Cc1ccc(O)cc1)[C@@H](C)O)[C@@H](C)O)[C@@H](C)CC)C(C)C)C(=O)N[C@@H](CC(N)=O)C(=O)N[C@@H](CCCCNC(=O)[C@@H](N)CCCCNC(=O)CC[C@H](NC(=O)CC[C@H](NC(=O)CC[C@H](NC(=O)CC[C@H](NC(=O)CC[C@H](NC(=O)CC[C@H](NC(=O)CCCCCCCCCCCCCCCCC(=O)O)C(=O)O)C(=O)O)C(=O)O)C(=O)O)C(=O)O)C(=O)O)C(=O)NC(C)(C)C(=O)N[C@H](C(=O)N[C@@H](CCCNC(=N)N)C(=O)N[C@@H](CCC(N)=O)C(=O)N[C@@H](CCCNC(=N)N)C(=O)N[C@@H](Cc1ccc(O)cc1)C(N)=O)[C@@H](C)O [Compound 84, Y-Aib-E-G-T-F-T-S-D-Y-S-I-Aib-L-E-K-Q-A-Y-Aib-A-F-V-R-H-L-I-N-K(1,3)-Aib-T-R-Q-R-Y-NH2.C18DA-gGlu-gGlu-gGlu-gGlu-gGlu-gGlu-eLys(1,2)]",4.1 mg/mL,5 nM,–,–
"CC[C@H](C)[C@H](NC(=O)[C@H](CC(C)C)NC(=O)[C@H](Cc1c[nH]cn1)NC(=O)[C@H](CCCNC(=N)N)NC(=O)[C@@H](NC(=O)[C@H](Cc1ccccc1)NC(=O)[C@H](C)NC(=O)C(C)(C)NC(=O)[C@H](CCC(N)=O)NC(=O)[C@H](CCCNC(=N)N)NC(=O)[C@H](CCC(N)=O)NC(=O)[C@H](CCCCN)NC(=O)[C@H](CCC(=O)O)NC(=O)[C@H](CC(C)C)NC(=O)C(C)(C)NC(=O)[C@@H](NC(=O)[C@H](CO)NC(=O)[C@H](Cc1ccc(O)cc1)NC(=O)[C@H](CC(=O)O)NC(=O)[C@H](CO)NC(=O)[C@@H](NC(=O)[C@H](Cc1ccccc1)NC(=O)[C@@H](NC(=O)CNC(=O)[C@H](CCC(=O)O)NC(=O)C(C)(C)NC(=O)[C@@H](N)Cc1ccc(O)cc1)[C@@H](C)O)[C@@H](C)O)[C@@H](C)CC)C(C)C)C(=O)N[C@@H](CC(N)=O)C(=O)N[C@@H](CCCCNC(=O)[C@@H](N)CCCCNC(=O)CC[C@H](NC(=O)CC[C@H](NC(=O)CC[C@H](NC(=O)CC[C@H](NC(=O)CC[C@H](NC(=O)CC[C@H](NC(=O)CCCCCCCCCCCCCCCCC(=O)O)C(=O)O)C(=O)O)C(=O)O)C(=O)O)C(=O)O)C(=O)O)C(=O)NC(C)(C)C(=O)N[C@H](C(=O)N[C@@H](CCCNC(=N)N)C(=O)N[C@@H](CCC(N)=O)C(=O)N[C@@H](CCCNC(=N)N)C(=O)N[C@@H](Cc1ccc(O)cc1)C(N)=O)[C@@H](C)O [Compound 91, Y-Aib-E-G-T-F-T-S-D-Y-S-I-Aib-L-E-K-Q-R-Q-Aib-A-F-V-R-H-L-I-N-K(1,3)-Aib-T-R-Q-R-Y-NH2.C18DA-gGlu-gGlu-gGlu-gGlu-gGlu-Glu-eLys(1,2)]",–,0.8 nM,2.2 mg/mL,14.4 nM
"CC[C@H](C)[C@H](NC(=O)[C@H](CC(C)C)NC(=O)[C@H](Cc1c[nH]cn1)NC(=O)[C@H](CCCNC(=N)N)NC(=O)[C@@H](NC(=O)[C@H](Cc1ccccc1)NC(=O)[C@H](C)NC(=O)C(C)(C)NC(=O)[C@H](CCC(N)=O)NC(=O)[C@H](C)NC(=O)[C@H](CCC(N)=O)NC(=O)[C@H](CCCCN)NC(=O)[C@H](CCC(=O)O)NC(=O)[C@H](CC(C)C)NC(=O)C(C)(C)NC(=O)[C@@H](NC(=O)[C@H](CO)NC(=O)[C@H](Cc1ccc(O)cc1)NC(=O)[C@H](CC(=O)O)NC(=O)[C@H](CO)NC(=O)[C@@H](NC(=O)[C@H](Cc1ccccc1)NC(=O)[C@@H](NC(=O)CNC(=O)[C@H](CCC(=O)O)NC(=O)C(C)(C)NC(=O)[C@@H](N)Cc1ccc(O)cc1)[C@@H](C)O)[C@@H](C)O)[C@@H](C)CC)C(C)C)C(=O)N[C@@H](CC(N)=O)C(=O)N[C@@H](CCCCNC(=O)CC[C@H](NC(=O)[C@@H](N)CCCCNC(=O)CC[C@H](NC(=O)CC[C@H](NC(=O)CC[C@H](NC(=O)CC[C@H](NC(=O)CC[C@H](NC(=O)CCCCCCCCCCCCCCCCCCC(=O)O)C(=O)O)C(=O)O)C(=O)O)C(=O)O)C(=O)O)C(=O)O)C(=O)NC(C)(C)C(=O)N[C@H](C(=O)N[C@@H](CCCNC(=N)N)C(=O)N[C@@H](CCC(N)=O)C(=O)N[C@@H](CCCNC(=N)N)C(=O)N[C@@H](Cc1ccc(O)cc1)C(N)=O)[C@@H](C)O [Compound 94, Y-Aib-E-G-T-F-T-S-D-Y-S-I-Aib-L-E-K-Q-A-Q-Aib-A-F-V-R-H-L-I-N-K(1,3)-Aib-T-R-Q-R-Y-NH2.C20DA-gGlu-gGlu-gGlu-gGlu-gGlu-eLys-gGlu(1,2)]",9 mg/mL,0.3 nM,–,–
"CC[C@H](C)[C@H](NC(=O)[C@H](CC(C)C)NC(=O)[C@H](Cc1c[nH]cn1)NC(=O)[C@H](CCCNC(=N)N)NC(=O)[C@@H](NC(=O)[C@H](Cc1ccccc1)NC(=O)[C@H](C)NC(=O)C(C)(C)NC(=O)[C@H](CCC(N)=O)NC(=O)[C@H](C)NC(=O)[C@H](CCC(N)=O)NC(=O)[C@H](C)NC(=O)[C@H](CCC(=O)O)NC(=O)[C@H](CC(C)C)NC(=O)C(C)(C)NC(=O)[C@@H](NC(=O)[C@H](CO)NC(=O)[C@H](Cc1ccc(O)cc1)NC(=O)[C@H](CC(=O)O)NC(=O)[C@H](CO)NC(=O)[C@@H](NC(=O)[C@H](Cc1ccccc1)NC(=O)[C@@H](NC(=O)CNC(=O)[C@H](CCC(=O)O)NC(=O)C(C)(C)NC(=O)[C@@H](N)Cc1ccc(O)cc1)[C@@H](C)O)[C@@H](C)O)[C@@H](C)CC)C(C)C)C(=O)N[C@@H](CC(N)=O)C(=O)N[C@@H](CCCCNC(=O)[C@@H](N)CCCCNC(=O)CC[C@H](NC(=O)CC[C@H](NC(=O)CC[C@H](NC(=O)CC[C@H](NC(=O)CC[C@H](NC(=O)CC[C@H](NC(=O)CCCCCCCCCCCCCCCCC(=O)O)C(=O)O)C(=O)O)C(=O)O)C(=O)O)C(=O)O)C(=O)O)C(=O)NC(C)(C)C(=O)N[C@H](C(=O)N[C@@H](CCCNC(=N)N)C(=O)N[C@@H](CCC(N)=O)C(=O)N[C@@H](CCCNC(=N)N)C(=O)N[C@@H](Cc1ccc(O)cc1)C(N)=O)[C@@H](C)O [Compound 123, Y-Aib-E-G-T-F-T-S-D-Y-S-I-Aib-L-E-A-Q-A-Q-Aib-A-F-V-R-H-L-I-N-K(1,3)-Aib-T-R-Q-R-Y-NH2.C18DA-gGlu-gGlu-gGlu-gGlu-gGlu-gGlu-eLys(1,2)]",4.3 mg/mL,0.3 nM,–,–
"CC[C@H](C)[C@H](NC(=O)[C@H](CC(C)C)NC(=O)[C@H](Cc1c[nH]cn1)NC(=O)[C@H](CCCNC(=N)N)NC(=O)[C@@H](NC(=O)[C@H](Cc1ccccc1)NC(=O)[C@H](C)NC(=O)C(C)(C)NC(=O)[C@H](CCC(N)=O)NC(=O)[C@H](C)NC(=O)[C@H](CCC(N)=O)NC(=O)[C@H](CCCCN)NC(=O)[C@H](CCC(=O)O)NC(=O)[C@H](CC(C)C)NC(=O)C(C)(C)NC(=O)[C@@H](NC(=O)[C@H](CO)NC(=O)[C@H](Cc1ccc(O)cc1)NC(=O)[C@H](CC(=O)O)NC(=O)[C@H](CO)NC(=O)[C@@H](NC(=O)[C@H](Cc1ccccc1)NC(=O)[C@@H](NC(=O)CNC(=O)[C@H](CCC(=O)O)NC(=O)C(C)(C)NC(=O)[C@@H](N)Cc1ccc(O)cc1)[C@@H](C)O)[C@@H](C)O)[C@@H](C)CC)C(C)C)C(=O)N[C@@H](CC(N)=O)C(=O)N[C@@H](CCCCNC(=O)CC[C@H](NC(=O)CC[C@H](NC(=O)CC[C@H](NC(=O)CC[C@H](NC(=O)CC[C@H](NC(=O)CC[C@H](NC(=O)[C@H]1CC[C@H](CNC(=O)CCCCCCCCCCCCCCCCCCC(=O)O)CC1)C(=O)O)C(=O)O)C(=O)O)C(=O)O)C(=O)O)C(=O)O)C(=O)NC(C)(C)C(=O)N[C@H](C(=O)N[C@@H](CCCNC(=N)N)C(=O)N[C@@H](CCC(N)=O)C(=O)N[C@@H](CCCNC(=N)N)C(=O)N[C@@H](Cc1ccc(O)cc1)C(N)=O)[C@@H](C)O [Compound 133, Y-Aib-E-G-T-F-T-S-D-Y-S-I-Aib-L-E-K-Q-A-Q-Aib-A-F-V-R-H-L-I-N-K(1,3)-Aib-T-R-Q-R-Y-NH2.C20DA-TRX-gGlu-gGlu-gGlu-gGlu-gGlu-gGlu(1,2)]",4.2 mg/mL,0.3 nM,–,3.4 nM
